Target: T1, FimH-CRD (Escherichia coli, UniProt P08191)
T1 construct: The first 177 amino acids of the FimH protein; thrombin tag (printed as 'fusion protein with thrombin') (cleaved yes); made in house; host or cells: bacteria (pET21b plasmid)
Experiment: Competitive binding assay by fluorescence polarization, assay 1 (compounds prepared by manual serial dilution)
How it was run: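 Fluorescence-polarization competition of 5 nM Alexa 647 mannoside probe with 60 nM FimH-CRD (first 177 residues, tag removed) in Tris-Cl pH 7.0, NaCl, EDTA, β-ME, BSA, 2.5% DMSO, 5 h at RT in the dark. Twelve-point 3-fold titrations (0.4 nM–75 μM) in duplicate; Kd interpolated from displacement curves.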

T1 sequence (P08191 22-177): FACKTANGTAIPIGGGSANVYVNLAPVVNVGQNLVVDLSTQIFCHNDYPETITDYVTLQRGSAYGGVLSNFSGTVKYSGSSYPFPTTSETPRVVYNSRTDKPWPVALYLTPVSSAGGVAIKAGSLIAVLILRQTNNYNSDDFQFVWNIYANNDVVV

| SMILES | IC50 | Kd |
| --- | --- | --- |
| COC(=O)Cc1cccc(-c2cccc([C@H]3O[C@H](CO)[C@@H](O)[C@H](O)[C@@H]3O)c2)c1 [Compound 65, Methyl 2-(3′-((2R,3S,4R,5S,6R)-3,4,5-trihydroxy-6-(hydroxymethyl)tetrahydro-2H-pyran-2-yl)-[1,1′-biphenyl]-3-yl)acetate] | 0.018 µM | 0.0052 ± 0.0001 µM |
| COC(=O)Cc1ccccc1-c1cccc([C@H]2O[C@H](CO)[C@@H](O)[C@H](O)[C@@H]2O)c1 [Compound 66, Methyl 2-(3′-((2R,3S,4R,5S,6R)-3,4,5-trihydroxy-6-(hydroxymethyl)tetrahydro-2H-pyran-2-yl)-[1,1′-biphenyl]-2-yl)acetate] | 0.024 µM | 0.0143 ± 0.0066 µM |
| OC[C@H]1O[C@H](c2ccc(Cl)c(O)c2)[C@@H](O)[C@@H](O)[C@@H]1O [Compound 67, (2R,3S,4R,5S,6R)-2-(4-chloro-3-hydroxyphenyl)-6-(hydroxymethyl)tetrahydro-2H-pyran-3,4,5-triol] | 0.106 µM | 0.021 ± 0.0043 µM |
| O=C(Nc1cccs1)Oc1cccc([C@H]2O[C@H](CO)[C@@H](O)[C@H](O)[C@@H]2O)c1 [Compound 69, 3-((2R,3S,4R,5S,6R)-3,4,5-trihydroxy-6-(hydroxymethyl)tetrahydro-2H-pyran-2-yl)phenyl thiophen-2-ylcarbamate] | 0.066 µM | 0.0131 ± 0.0007 µM |
| O=C(Nc1ccc(F)cc1)Oc1cccc([C@H]2O[C@H](CO)[C@@H](O)[C@H](O)[C@@H]2O)c1 [Compound 70, 3-((2R,3S,4R,5S,6R)-3,4,5-trihydroxy-6-(hydroxymethyl)tetrahydro-2H-pyran-2-yl)phenyl (4-fluorophenyl)carbamate] | 0.046 µM | 0.0116 ± 0.0042 µM |
| CN(C)c1ccc(NC(=O)Oc2cccc([C@H]3O[C@H](CO)[C@@H](O)[C@H](O)[C@@H]3O)c2)cc1 [Compound 71, 3-((2R,3S,4R,5S,6R)-3,4,5-trihydroxy-6-(hydroxymethyl)tetrahydro-2H-pyran-2-yl)phenyl (4-(dimethylamino)phenyl)carbamate] | 0.067 µM | 0.0146 ± 0.0023 µM |
| C[C@@H](NC(=O)Oc1cccc([C@H]2O[C@H](CO)[C@@H](O)[C@H](O)[C@@H]2O)c1)c1ccccc1 [Compound 72, 3-((2R,3S,4R,5S,6R)-3,4,5-trihydroxy-6-(hydroxymethyl)tetrahydro-2H-pyran-2-yl)phenyl (R)-1-phenylethylcarbamate] | 0.06 µM | 0.0162 ± 0.0054 µM |
| OC[C@H]1O[C@H](c2cccc(C#Cc3cc(Cl)cc(Cl)c3)c2)[C@@H](O)[C@@H](O)[C@@H]1O [Compound 92, (2R,3S,4R,5S,6R)-2-[3-[2-(3,5-Dichlorophenyl)ethynyl]phenyl]-6-(hydroxymethyl)tetrahydropyran-3,4,5-triol] |  | 0.0249 ± 0.0113 µM |
| COc1ccc([C@H]2O[C@H](CO)[C@@H](O)[C@H](O)[C@@H]2O)cc1-c1ccc(-c2nnc(C)o2)cc1 [Compound 132, (2R,3S,4R,5S,6R)-2-(hydroxymethyl)-6-[4-methoxy-3-[4-(5-methyl-1,3,4-oxadiazol-2-yl)phenyl]phenyl]tetrahydropyran-3,4,5-triol] |  | 0.0069 ± 2e-05 µM |
| Cc1nnc(-c2ccc(C#Cc3cccc([C@H]4O[C@H](CO)[C@@H](O)[C@H](O)[C@@H]4O)c3)cc2)o1 [Compound 133, (2R,3S,4R,5S,6R)-2-(hydroxymethyl)-6-[3-[2-[4-(5-methyl-1,3,4-oxadiazol-2-yl)phenyl]ethynyl]phenyl]tetrahydropyran-3,4,5-triol] |  | 0.0061 ± 0.0014 µM |
| Cc1nnc(-c2ccc(C#Cc3ccc([C@H]4O[C@H](CO)[C@@H](O)[C@H](O)[C@@H]4O)cc3)cc2)o1 [Compound 134, (2R,3S,4R,5S,6R)-2-(hydroxymethyl)-6-[4-[2-[4-(5-methyl-1,3,4-oxadiazol-2-yl)phenyl]ethynyl]phenyl]tetrahydropyran-3,4,5-triol] |  | 0.0542 ± 0.017 µM |
| OC[C@H]1O[C@H](c2cccc(/C=C\c3ccccc3)c2)[C@@H](O)[C@@H](O)[C@@H]1O [Compound 139, (2R,3S,4R,5S,6R)-2-(hydroxymethyl)-6-[3-[(Z)-styryl]phenyl]tetrahydropyran-3,4,5-triol] |  | < 0.005 µM |
| CNC(=O)c1cccc(COc2ccc(C3O[C@H](CO)[C@@H](O)[C@H](O)[C@@H]3O)cc2)c1 (stereo partly shown) [Compound 248] |  | 0.014 ± 0.0084 µM |
| CNC(=O)c1ccc2nc(Oc3cccc([C@H]4O[C@H](CO)[C@@H](O)[C@H](O)[C@@H]4O)c3)sc2c1 [Compound 255, N-methyl-2-[3-[(2R,3S,4R,5S,6R)-3,4,5-trihydroxy-6-(hydroxymethyl)tetrahydropyran-2-yl]phenoxy]-1,3-benzothiazole-6-carboxamide] |  | 0.0087 ± 0.002 µM |
| OC[C@H]1O[C@H](O[C@@H]2[C@H](O)[C@@H](c3cccc(O)c3)O[C@H](CO)[C@H]2O)[C@@H](O)[C@@H](O)[C@@H]1O [Compound 265, (2R,3S,4S,5S,6R)-2-[(2R,3R,4R,5R,6R)-3,5-Dihydroxy-2-(hydroxymethyl)-6-(3-hydroxyphenyl)tetrahydropyran-4-yl]oxy-6-(hydroxymethyl)tetrahydropyran-3,4,5-triol] | 0.162 µM | 0.0521 ± 0.0138 µM |
| OC[C@H]1O[C@H](O[C@@H]2[C@H](O)[C@@H](c3ccc(O)cc3)O[C@H](CO)[C@H]2O)[C@@H](O)[C@@H](O)[C@@H]1O [Compound 266, (2R,3S,4S,5S,6R)-2-[(2R,3R,4R,5R,6R)-3,5-Dihydroxy-2-(hydroxymethyl)-6-(4-hydroxyphenyl)tetrahydropyran-4-yl]oxy-6-(hydroxymethyl)tetrahydropyran-3,4,5-triol] | 0.059 µM | 0.0213 ± 0.0062 µM |
| CNC(=O)c1ccc(Oc2cccc([C@H]3O[C@H](CO)[C@@H](O)[C@H](O[C@H]4O[C@H](CO)[C@@H](O)[C@H](O)[C@@H]4O)[C@@H]3O)c2)cc1 [Compound 267, 4-[3-[(2R,3R,4R,5R,6R)-3,5-Dihydroxy-6-(hydroxymethyl)-4-[(2R,3S,4S,5S,6R)-3,4,5-trihydroxy-6-(hydroxymethyl)tetrahydropyran-2-yl]oxy-tetrahydropyran-2-yl]phenoxy]-N-methyl-benzamide] | 0.068 µM | 0.0128 ± 0.008 µM |
| CNC(=O)c1cccc(Oc2ccc([C@H]3O[C@H](CO)[C@@H](O)[C@H](O[C@H]4O[C@H](CO)[C@@H](O)[C@H](O)[C@@H]4O)[C@@H]3O)cc2)c1 [Compound 268, 3-[4-[(2R,3R,4R,5R,6R)-3,5-Dihydroxy-6-(hydroxymethyl)-4-[(2R,3S,4S,5S,6R)-3,4,5-trihydroxy-6-(hydroxymethyl)tetrahydropyran-2-yl]oxy-tetrahydropyran-2-yl]phenoxy]-N-methyl-benzamide] | 0.077 µM | 0.019 ± 0.0038 µM |
| CNC(=O)c1cccc(Oc2cccc([C@H]3O[C@H](CO)[C@@H](O)[C@H](O[C@H]4O[C@H](CO)[C@@H](O)[C@H](O)[C@@H]4O)[C@@H]3O)c2)c1 [Compound 269, 3-[3-[(2R,3R,4R,5R,6R)-3,5-Dihydroxy-6-(hydroxymethyl)-4-[(2R,3S,4S,5S,6R)-3,4,5-trihydroxy-6-(hydroxymethyl)tetrahydropyran-2-yl]oxy-tetrahydropyran-2-yl]phenoxy]-N-methyl-benzamide] | 0.01 µM | < 0.005 µM |

— patent publication US20130261077A1 (priority 2012, published 2013)
